From publication PMC8637766, “A mixed chirality α-helix in a stapled bicyclic and a linear antimicrobial peptide revealed by X-ray crystallography” (RSC Chemical Biology, 2021)
In brackets after ≈: the same amount, converted by molar mass. Peptide text beside a SMILES is read from it.

Columns and labels:
[1] = system: B. subtilis BR151; type: cell-based, Bacillus subtilis; settings: BR151, 20 h
Protocol: (§1) Bicyclic and linear peptides cytotoxicity was assayed against P. aeruginosa PAO1, P. aeruginosa ZEM-1A, P. aeruginosa ZEM9A, K. pneumoniae Oxa-48, E. coli W3110, A. baumannii BAL225, S. aureus Newman, S. aureus COL (clinical isolate of MRSA) , B. Subtilis BR151.
(§2) To determine the Minimal Inhibitory Concentration (MIC), Broth Microdilution method was used . 2 A colony of bacteria from glycerol stock was grown in LB medium overnight at 37 °C and 180 rpm shaking. The compounds were prepared as stock solutions of 8 mg/mL in sterilized milliQ deionized water, added to the first well of 96 -well sterile, polypropylene round bottom microtiter plates (TPP, untreated) and diluted serially by ½. The concentration of the bacteria was quantified by measuring absorbance at 600 nm and diluted to an OD 600 of 0.022 in MH medium. The sample solutions (150 µL) were mixed with 4 µL diluted bacterial suspension with a final inoculation of about 5×10^5 CFU.
For each test, two columns of the plate were kept for sterility control (MH medium only), growth control (MH medium with bacterial inoculum, no compound). The positive control, Polymyxin B (starting with a concentration of 64 µg/mL) in MH medium with bacterial inoculums, was introduced in the two first lines of the plate. […]
conditions. 15 μL of 3-(4,5-dimethylthiazol-2-yl)-2,5-diphenyltetrazolium bromide (MTT)3 (1 mg/mL in sterilized milliQ deionized water) were added to each well and the plates were incubated for 20-30 minutes at room temperature. The minimal inhibitory concentration (MIC) was defined as the lowest concentration of the dendrimer that inhibits the visible growth of the tested bacteria (yellow) with the unaided eye.

[2] = system: S. aureus Newman; type: cell-based
Protocol: as §1, §2
(§3) For each test, two columns of the plate were kept for sterility control (MH medium only), growth control (MH medium with bacterial inoculum, no compound). The positive control, Polymyxin B (starting with a concentration of 64 µg/mL) in MH medium with bacterial inoculums, was introduced in the two first lines of the plate. The plates were incubated at 37 °C for ~18 hours under static conditions. 15 μL of 3-(4,5-dimethylthiazol-2-yl)-2,5-diphenyltetrazolium bromide (MTT)3 (1 mg/mL in sterilized milliQ deionized water) were added to each well and the plates were incubated for 20-30 minutes at room temperature. The minimal inhibitory concentration (MIC) was defined as the lowest concentration of the dendrimer that inhibits the visible growth of the tested bacteria (yellow) with the unaided eye.

[3] = system: K. pneumoniae Oxa-48; type: cell-based
Protocol: as §1, §2, §3

[4] = system: S. aureus COL (clinical isolate of MRSA); type: cell-based
Protocol: as §1, §2, §3

[5] = system: E. coli W3110; type: cell-based
Protocol: as §1, §2, §3

[6] = system: A. baumannii BAL225; type: cell-based
Protocol: as §1, §2, §3

[7] = Lipid vesicle leakage assay, 5(6)-carboxyfluorescein release; settings: 10 μg mL^−1 compound, leakage at 250 s; 10 mM TRIS, 107 mM NaCl, pH 7.4, 25 °C; carboxyfluorescein fluorescence, Triton X-100 = full release
Protocol: 4 Lipid Vesicle Leakage assays
5(6)-carboxyfluorescein (CF) was purchased from Sigma. Egg Yolk Phosphatidylcholine (EYPC),
Egg Yolk Phosphatidylglycerol (EYPG) and a Mini-Extruder were purchased from Avanti Polar
Lipids. Egg PC or Egg PG thin lipid layers were prepared by evaporating a solution of 100 mg EYPC
or EYPG in 4 mL MeOH/CHCl3 (1:1) on a rotary evaporator at room temperature and then dried in
vacuo overnight. The resulting film was then hydrated with 4 mL CF buffer (50 mM CF, 10 mM
TRIS, 107 mM NaCl, pH 7.4) for 30 min, subjected to freeze-thaw cycles (7×) and extrusion (15×)
through a polycarbonate membrane (pore size 100 nm). Extra vesicular components were removed
by gel filtration (Sephadex G-50) with 10 mM TRIS, 107 mM NaCl, pH 7.4 buffer. Final conditions:
~ 2.5 mM PC or PG; inside: 50 mM CF, 10 mM TRIS, 10 mM NaCl, pH 7.4 buffer; outside: 10 mM
TRIS, 107 mM NaCl, pH 7.4. PC or PG stock solutions (37.5 µL) were diluted to 3000 µL with a
buffer (10 mM TRIS, 107 mM NaCl, pH 7.4) in a thermostated fluorescence cuvette (25 °C) and
gently stirred (final lipid concentration ~31 µM). CF efflux was monitored at λem 517 nm (λex 492
nm) as a function of time after addition of the desired volume of peptide (1 or 20 mg/mL stock in mQ
water) at t = 45 s. The following final concentrations of peptide were monitored: 5, 10, 15, 20, 25 and
200 µg/mL. Finally, 30 µL of 1.2% Triton X -100 was added to the cuvette (0.012% final
concentration) at t = 285 s to reach the maximum intensity. Fluorescence intensities were then
Figure S1: Vesicle leakage experiments using 5(6)-carboxyfluorescein induced by peptides. EYPG and EYPC vesicles
were suspended in buffer (10 mM TRIS, 107 mM NaCl, pH 7.4) and the indicated concentration of the compound was
added after 45 sec. After 285 seconds 30 μL Triton X-100 1.2% was added for full release of fluorescein. […]

[8] = system: P. aeruginosa ZEM9A; type: cell-based, Pseudomonas aeruginosa
Protocol: as §1, §2, §3

[9] = system: P. aeruginosa PAO1; type: cell-based, Pseudomonas aeruginosa
Protocol: as §1, §2, §3

[10] = system: P. aeruginosa ZEM-1A; type: cell-based, Pseudomonas aeruginosa
Protocol: as §1, §2, §3

MIC BR 151 [1]	MIC S. aureus Newman [2]	MIC K. pneumoniae Oxa-48 [3]	MIC S. aureus COL [4]	MIC E. coli W3110 [5]	MIC A. baumannii BAL225 [6]	MIC P. aeruginosa ZEM9A [8]	MIC PAO1 [9]	MIC P. aeruginosa ZEM-1A [10]	Compound	EYPC vesicle leakage [7]	EYPG vesicle leakage [7]
2 µg/mL (≈ 1.39 µM)	8 µg/mL (≈ 5.54 µM)	16 µg/mL (≈ 11.1 µM)	8 µg/mL (≈ 5.54 µM)	8 µg/mL (≈ 5.54 µM)	4 µg/mL (≈ 2.77 µM)	>32 µg/mL	8 µg/mL (≈ 5.54 µM)	8 µg/mL (≈ 5.54 µM)	Cc1c2cc3cc1CSC[C@H](NC(=O)[C@H](CCCCN)NC(=O)[C@H](CC(C)C)NC(=O)[C@H](CC(C)C)NC(=O)[C@H](CCCCN)NC(=O)[C@H](CCCCN)NC3=O)C(=O)N[C@@H](CC(C)C)C(=O)N[C@@H](CCCCN)C(=O)N[C@H](C(=O)N[C@@H](CC(C)C)C(=O)N[C@@H](CC(C)C)C(N)=O)CSC2 [bp65] (HELM PEPTIDE1{K.K.L.L.K.C.L.K.C.L.L.[am]}|CHEM1{[Cc1c(C[*:2])cc(C(=O)[*:1])cc1C[*:3]]}$PEPTIDE1,CHEM1,1:R1-1:R1|PEPTIDE1,CHEM1,6:R3-1:R2|PEPTIDE1,CHEM1,9:R3-1:R3$$$V2.0)	37%	34%
	2 to 4 µg/mL	16 µg/mL (≈ 11.1 µM)	4 µg/mL (≈ 2.77 µM)	8 µg/mL (≈ 5.54 µM)	4 µg/mL (≈ 2.77 µM)	>32 µg/mL	16 µg/mL (≈ 11.1 µM)	4 to 8 µg/mL	Cc1c2cc3cc1CSC[C@H](NC(=O)[C@@H](CCCCN)NC(=O)[C@H](CC(C)C)NC(=O)[C@H](CC(C)C)NC(=O)[C@@H](CCCCN)NC(=O)[C@@H](CCCCN)NC3=O)C(=O)N[C@@H](CC(C)C)C(=O)N[C@H](CCCCN)C(=O)N[C@H](C(=O)N[C@@H](CC(C)C)C(=O)N[C@@H](CC(C)C)C(N)=O)CSC2 [bp69] (HELM PEPTIDE1{[dK].[dK].L.L.[dK].C.L.[dK].C.L.L.[am]}|CHEM1{[Cc1c(C[*:2])cc(C(=O)[*:1])cc1C[*:3]]}$PEPTIDE1,CHEM1,1:R1-1:R1|PEPTIDE1,CHEM1,6:R3-1:R2|PEPTIDE1,CHEM1,9:R3-1:R3$$$V2.0)	57%	48%
